Here are results for 34 compounds from ChEMBL document CHEMBL4364293, “Design, Synthesis, and Structure-Activity Relationship of 7-Propanamide Benzoxaboroles as Potent Anticancer Agents” (J Med Chem, 2019).

pIC50: −log10 of the molar value.

The subject of one assay is SK-OV-3. The assay is described as follows: Antiproliferative activity against human SKOV3 cells after 72 hrs by MTT assay. Format: functional, cell-based. Conditions: SK-OV-3, 72 h.
The next assay concerns MDA-MB-231. The assay can be described thus: Antiproliferative activity against human MDA-MB-231 cells after 72 hrs by MTT assay. Format: functional, cell-based. Conditions: MDA-MB-231, 72 h.
A further assay has as its system HCT-116. The assay is described as follows: Antiproliferative activity against human HCT116 cells after 72 hrs by MTT assay. Format: functional, cell-based. As to conditions: HCT-116, 72 h.
In a further assay the test system is WI-38. The assay is described as follows: Cytotoxicity against human WI38 cells after 72 hrs by MTT assay. In kind it is cell-based. Conditions: WI-38, 72 h.

Regarding `Cc1cc(C)c(NC(=O)CCc2cccc3c2B(O)OC3)c(C)c1`, the negative logarithm of the IC50 (pIC50) in the assay with SK-OV-3 was 4.72; in the assay with MDA-MB-231, 4.15; in the assay with HCT-116, 4.19; in the assay with WI-38, 4.13.

On to `COc1cccc(-c2cccc(NC(=O)CCc3ccc4c(c3)B(O)OC4)c2)c1`, for which the negative-log IC50 (pIC50) is 4.21 in the assay with SK-OV-3, 4.31 in the assay with MDA-MB-231, 4.68 in the assay on HCT-116 and < 4.00 in the assay with WI-38.

`O=C(CCc1cccc2c1B(O)OC2)Nc1cccc(-c2cccc(F)c2)c1`: the pIC50 in the assay with SK-OV-3 is 6.32; in the assay on MDA-MB-231, 6.24; in the assay on HCT-116, 6.34; in the assay with WI-38 it was 4.43.

For the compound `Cc1ccc(NC(=O)CCc2cccc3c2B(O)OC3)cc1`, the pIC50 with SK-OV-3 was 6.07; with MDA-MB-231 it was 5.96; in the assay on HCT-116, 5.35; in the assay on WI-38 it was < 4.00.

As to `C#Cc1ccc(NC(=O)CCc2cccc3c2B(O)OC3)cc1`, the pIC50 with SK-OV-3 is 5.20; with MDA-MB-231 it was 5.18; in the assay with HCT-116 it was 4.35; in the assay on WI-38, < 4.00.

`N#Cc1ccc(-c2cccc(NC(=O)CCc3cccc4c3B(O)OC4)c2)cc1`: the negative-log IC50 (pIC50) with SK-OV-3 is 6.47; in the assay with MDA-MB-231, 6.42; with HCT-116, 6.39; in the assay on WI-38, 4.92.

On to `O=C(CCc1cccc2c1B(O)OC2)Nc1ccc([N+](=O)[O-])cc1`, for which the pIC50 in the assay on SK-OV-3 is 4.08; with MDA-MB-231, 4.44; in the assay with HCT-116, < 4.00; in the assay with WI-38, < 4.00.

Turning to `O=C(CCc1cccc2c1B(O)OC2)Nc1cccc(-c2ccc(C(F)(F)F)cc2)c1`, the negative logarithm of the IC50 (pIC50) was 6.30 in the assay on SK-OV-3, 6.29 in the assay on MDA-MB-231, 6.26 with HCT-116 and 4.59 in the assay on WI-38.

For `OB1OCc2cc(F)ccc21` [TAVABOROLE], the pIC50 in the assay on SK-OV-3 is < 4.00; in the assay with MDA-MB-231, < 4.00; in the assay with HCT-116, 4.19; in the assay with WI-38, 4.49.

Consider `COc1ccccc1NC(=O)CCc1cccc2c1B(O)OC2`, for which the negative-log IC50 (pIC50) was 6.70 with SK-OV-3, 6.03 in the assay on MDA-MB-231, 6.37 with HCT-116 and 5.80 in the assay on WI-38.

As for `O=C(CCc1cccc2c1B(O)OC2)Nc1cccc(-c2ccccc2)c1`, the pIC50 in the assay with SK-OV-3 is 6.60; in the assay with MDA-MB-231, 6.66; with HCT-116 it was 6.05; in the assay on WI-38 it was 4.92.

Consider `O=C(CCc1cccc2c1B(O)OC2)Nc1ccccc1-c1ccccc1`, for which the negative logarithm of the IC50 (pIC50) in the assay on SK-OV-3 is 4.59; with MDA-MB-231, 4.74; in the assay on HCT-116, 4.64; with WI-38, 4.11.

On to `CC(=O)c1ccc(-c2cccc(NC(=O)CCc3cccc4c3C(O)OC4)c2)cc1` (stereo unspecified), for which the pIC50 in the assay on SK-OV-3 is 4.39; in the assay with MDA-MB-231, 4.54; in the assay on HCT-116, 4.74; in the assay with WI-38 it was < 4.00.

`CSc1cccc(-c2cccc(NC(=O)CCc3cccc4c3B(O)OC4)c2)c1`: the negative logarithm of the IC50 (pIC50) with SK-OV-3 is 6.82; in the assay with MDA-MB-231, 6.82; with HCT-116 it was 6.96; in the assay on WI-38, 5.70.

Regarding `COc1cccc(-c2cccc(NC(=O)CCc3cccc4c3COB4O)c2)c1`, the pIC50 in the assay on SK-OV-3 was 4.11; in the assay on MDA-MB-231, 4.12; with HCT-116 it was 4.34; in the assay with WI-38 it was < 4.00.

For `OB1OCc2ccccc21` [BENZOXABOROLE], the negative logarithm of the IC50 (pIC50) is < 4.00 in the assay with SK-OV-3, < 4.00 with MDA-MB-231, < 4.00 in the assay with HCT-116 and 4.24 in the assay on WI-38.

With `O=C(CCc1cccc2c1B(O)OC2)NCc1ccccc1`, the pIC50 with SK-OV-3, in the assay on MDA-MB-231, in the assay with HCT-116 and with WI-38 was < 4.00 throughout.

Turning to `O=C(CCc1cccc2c1C(O)OC2)Nc1ccccc1` (stereo unspecified), the negative-log IC50 (pIC50) in the assay on SK-OV-3 was 4.11; in the assay on MDA-MB-231, 4.92; in the assay with HCT-116, 4.66; in the assay with WI-38 it was 4.38.

Consider `O=C(CCc1cccc2c1B(O)OC2)NCCc1ccccc1`, for which the pIC50 with SK-OV-3, with MDA-MB-231, in the assay on HCT-116 and in the assay with WI-38 was < 4.00 in each case.

Take `COc1ccc(NC(=O)CCc2cccc3c2B(O)OC3)cc1`: the pIC50 was 6.05 in the assay on SK-OV-3, 6.07 in the assay with MDA-MB-231, 5.77 with HCT-116 and < 4.00 with WI-38.

`CCOC(=O)c1ccc(NC(=O)CCc2cccc3c2B(O)OC3)cc1`: the pIC50 with SK-OV-3, in the assay on MDA-MB-231, in the assay on HCT-116 and in the assay with WI-38 was < 4.00 in each case.

As for `O=C(CCc1cccc2c1B(O)OC2)Nc1cccc(-c2cccc(OC(F)(F)F)c2)c1`, the pIC50 was 6.34 with SK-OV-3, 6.34 with MDA-MB-231, 6.51 in the assay with HCT-116 and 5.01 with WI-38.

Turning to `CC(C)(C)NC(=O)CCc1cccc2c1B(O)OC2`, the pIC50 with SK-OV-3, in the assay with MDA-MB-231, in the assay with HCT-116 and in the assay on WI-38 was < 4.00 each time.

`O=C(CCc1cccc2c1B(O)OC2)Nc1cccc2ccccc12`: the negative-log IC50 (pIC50) is 6.77 with SK-OV-3, 6.82 in the assay on MDA-MB-231, 6.70 with HCT-116 and 5.92 in the assay with WI-38.

As to `O=C(O)CCc1cccc2c1B(O)OC2`, the pIC50 in the assay on SK-OV-3, in the assay with MDA-MB-231, with HCT-116 and in the assay on WI-38 was < 4.00 in each case.

With `O=C(CCc1cccc2c1B(O)OC2)Nc1cccc(-c2ccc(OC(F)(F)F)cc2)c1`, the negative logarithm of the IC50 (pIC50) in the assay with SK-OV-3 was 6.25; with MDA-MB-231, 6.19; in the assay on HCT-116, 6.14; in the assay on WI-38, 4.60.

As for `COc1cccc(-c2cccc(NC(=O)CCc3cccc4c3C(O)OC4)c2)c1` (stereo unspecified), the negative-log IC50 (pIC50) in the assay with SK-OV-3 was 4.21; with MDA-MB-231, 4.28; in the assay with HCT-116, 4.31; with WI-38, 4.03.

For the compound `CC(C)(C)OC(=O)NCc1ccc(NC(=O)CCc2cccc3c2B(O)OC3)cc1`, the pIC50 was 5.70 in the assay on SK-OV-3, 5.89 in the assay with MDA-MB-231, 5.64 with HCT-116 and 5.32 in the assay on WI-38.

For the compound `O=C(CCc1cccc2c1B(O)OC2)Nc1cccc(-c2cccc(Cl)c2)c1`, the pIC50 is 6.52 in the assay on SK-OV-3, 6.60 in the assay on MDA-MB-231, 6.46 in the assay with HCT-116 and 4.24 in the assay with WI-38.

Take `O=C(CCc1cccc2c1B(O)OC2)Nc1ccc(-c2ccccc2)cc1`: the negative logarithm of the IC50 (pIC50) is 4.32 with SK-OV-3, 5.06 in the assay on MDA-MB-231, 4.89 in the assay on HCT-116 and 4.49 in the assay with WI-38.

Take `COc1cc(OC)cc(-c2cccc(NC(=O)CCc3cccc4c3B(O)OC4)c2)c1`: the negative-log IC50 (pIC50) in the assay on SK-OV-3 was 7.36; in the assay on MDA-MB-231 it was 7.40; in the assay on HCT-116, 7.28; with WI-38 it was 5.77.

Take `O=C(CCc1cccc2c1B(O)OC2)Nc1cccc(I)c1`: the pIC50 was 6.20 in the assay on SK-OV-3, 5.28 with MDA-MB-231, 5.64 in the assay on HCT-116 and 4.15 in the assay on WI-38.

For the compound `O=C(CCc1ccccc1)Nc1ccccc1`, the pIC50 in the assay on SK-OV-3, in the assay with MDA-MB-231, in the assay on HCT-116 and in the assay with WI-38 was < 4.00 each time.

Regarding `COc1ccc(-c2cccc(NC(=O)CCc3cccc4c3B(O)OC4)c2)cc1`, the pIC50 in the assay on SK-OV-3 is 7.32; in the assay on MDA-MB-231 it was 7.06; with HCT-116 it was 6.80; with WI-38, 5.85.
